# In PubChem BioAssay (NCI):
#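 1) Cells in 96-well plates. 2) Compound, 48 h, 5 concentrations. 3) Linear interpolation between surrounding doses. 4) Unreached endpoint = highest concentration. GI50 = concentration required for 50% inhibition of growth. TGI marks complete inhibition of growth.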
# How the values were obtained:
# Experiment in all cases: inhibition of tumour cell growth, NCI panel, 48 h
# 786-0 renal = tested on: 786-0 renal
# A498 renal = tested on: A498 renal
# A549 NSCLC = tested on: A549 NSCLC
# ACHN renal = tested on: ACHN renal
# BT-549 breast = tested on: BT-549 breast
# CAKI-1 renal = tested on: CAKI-1 renal
# CCRF-CEM leukemia = tested on: CCRF-CEM leukemia
# COLO 205 colon = tested on: COLO 205 colon
# DU-145 prostate = tested on: DU-145 prostate
# EKVX NSCLC = tested on: EKVX NSCLC
# HCC-2998 colon = tested on: HCC-2998 colon
# HCT-116 colon = tested on: HCT-116 colon
# HCT-15 colon = tested on: HCT-15 colon
# HL-60(TB) leukemia = tested on: HL-60(TB) leukemia
# HOP-62 NSCLC = tested on: HOP-62 NSCLC
# HOP-92 NSCLC = tested on: HOP-92 NSCLC
# HS 578T breast = tested on: HS 578T breast
# HT29 colon = tested on: HT29 colon
# IGROV1 ovarian = tested on: IGROV1 ovarian
# K-562 leukemia = tested on: K-562 leukemia
# KM12 colon = tested on: KM12 colon
# LOX IMVI melanoma = tested on: LOX IMVI melanoma
# M14 melanoma = tested on: M14 melanoma
# MALME-3M melanoma = tested on: MALME-3M melanoma
# MCF7 breast = tested on: MCF7 breast
# MDA-MB-231 breast = tested on: MDA-MB-231 breast
# MDA-MB-435 = tested on: MDA-MB-435
# MDA-MB-468 breast = tested on: MDA-MB-468 breast
# MOLT-4 leukemia = tested on: MOLT-4 leukemia
# NCI-H226 lung = tested on: NCI-H226 lung
# NCI-H23 lung = tested on: NCI-H23 lung
# NCI-H460 lung = tested on: NCI-H460 lung
# NCI-H522 lung = tested on: NCI-H522 lung
# NCI/ADR-RES ovarian = tested on: NCI/ADR-RES ovarian
# OVCAR-3 ovarian = tested on: OVCAR-3 ovarian
# OVCAR-4 ovarian = tested on: OVCAR-4 ovarian
# OVCAR-5 ovarian = tested on: OVCAR-5 ovarian
# OVCAR-8 ovarian = tested on: OVCAR-8 ovarian
# PC-3 prostate = tested on: PC-3 prostate
# RPMI-8226 leukemia = tested on: RPMI-8226 leukemia
# RXF 393 renal = tested on: RXF 393 renal
# SF-268 CNS = tested on: SF-268 CNS
# SF-295 CNS = tested on: SF-295 CNS
# SF-539 CNS = tested on: SF-539 CNS
# SK-MEL-2 melanoma = tested on: SK-MEL-2 melanoma
# SK-MEL-28 melanoma = tested on: SK-MEL-28 melanoma
# SK-MEL-5 melanoma = tested on: SK-MEL-5 melanoma
# SK-OV-3 ovarian = tested on: SK-OV-3 ovarian
# SN12C renal = tested on: SN12C renal
# SNB-19 CNS = tested on: SNB-19 CNS
# SNB-75 CNS = tested on: SNB-75 CNS
# SR leukemia = tested on: SR leukemia
# SW-620 colon = tested on: SW-620 colon
# T-47D breast = tested on: T-47D breast
# TK-10 renal = tested on: TK-10 renal
# U251 CNS = tested on: U251 CNS
# UACC-257 melanoma = tested on: UACC-257 melanoma
# UACC-62 melanoma = tested on: UACC-62 melanoma
# UO-31 renal = tested on: UO-31 renal
compound,measurement,setting,value
COc1cccc(-c2ccc(/C=N/NC(=O)c3[nH]c4ccc(Br)cc4c3-c3ccccc3)s2)c1,GI50,786-0 renal,3.7 µM
same,TGI,786-0 renal,> 100 µM
same,GI50,A498 renal,82.3 µM
same,TGI,A498 renal,> 100 µM
same,GI50,A549 NSCLC,4.71 µM
same,TGI,A549 NSCLC,> 100 µM
same,GI50,ACHN renal,3.96 µM
same,TGI,ACHN renal,> 100 µM
same,GI50,BT-549 breast,3.96 µM
same,TGI,BT-549 breast,9.44 µM
same,GI50,CAKI-1 renal,3.19 µM
same,TGI,CAKI-1 renal,63.5 µM
same,GI50,CCRF-CEM leukemia,3.15 µM
same,TGI,CCRF-CEM leukemia,13.3 µM
same,GI50,COLO 205 colon,3.28 µM
same,TGI,COLO 205 colon,12.9 µM
same,GI50,DU-145 prostate,3.62 µM
same,TGI,DU-145 prostate,> 100 µM
same,GI50,EKVX NSCLC,7.39 µM
same,TGI,EKVX NSCLC,> 100 µM
same,GI50,HCC-2998 colon,4.21 µM
same,TGI,HCC-2998 colon,> 100 µM
same,GI50,HCT-116 colon,2.97 µM
same,TGI,HCT-116 colon,10.5 µM
same,GI50,HCT-15 colon,3.36 µM
same,TGI,HCT-15 colon,> 100 µM
same,GI50,HL-60(TB) leukemia,2.16 µM
same,TGI,HL-60(TB) leukemia,5.21 µM
same,GI50,HOP-62 NSCLC,4.39 µM
same,TGI,HOP-62 NSCLC,> 100 µM
same,GI50,HOP-92 NSCLC,9.83 µM
same,TGI,HOP-92 NSCLC,> 100 µM
same,GI50,HS 578T breast,2.4 µM
same,TGI,HS 578T breast,8.62 µM
same,GI50,HT29 colon,2.81 µM
same,TGI,HT29 colon,10.1 µM
same,GI50,IGROV1 ovarian,4.26 µM
same,TGI,IGROV1 ovarian,> 100 µM
same,GI50,K-562 leukemia,2.18 µM
same,TGI,K-562 leukemia,> 100 µM
same,GI50,KM12 colon,3.08 µM
same,TGI,KM12 colon,19.3 µM
same,GI50,LOX IMVI melanoma,2.45 µM
same,TGI,LOX IMVI melanoma,36.4 µM
same,GI50,M14 melanoma,3.76 µM
same,TGI,M14 melanoma,> 100 µM
same,GI50,MALME-3M melanoma,5.66 µM
same,TGI,MALME-3M melanoma,> 100 µM
same,GI50,MCF7 breast,1.82 µM
same,TGI,MCF7 breast,> 100 µM
same,GI50,MDA-MB-231 breast,4.77 µM
same,TGI,MDA-MB-231 breast,94.7 µM
same,GI50,MDA-MB-435,1.61 µM
same,TGI,MDA-MB-435,4.56 µM
same,GI50,MDA-MB-468 breast,2.67 µM
same,TGI,MDA-MB-468 breast,19.3 µM
same,GI50,MOLT-4 leukemia,3.37 µM
same,TGI,MOLT-4 leukemia,14.9 µM
same,GI50,NCI-H226 lung,3.39 µM
same,TGI,NCI-H226 lung,> 100 µM
same,GI50,NCI-H23 lung,5.55 µM
same,TGI,NCI-H23 lung,56.7 µM
same,GI50,NCI-H460 lung,3.01 µM
same,TGI,NCI-H460 lung,12.5 µM
same,GI50,NCI-H522 lung,1.11 µM
same,TGI,NCI-H522 lung,11.1 µM
same,GI50,NCI/ADR-RES ovarian,2.16 µM
same,TGI,NCI/ADR-RES ovarian,5.91 µM
same,GI50,OVCAR-3 ovarian,2.24 µM
same,TGI,OVCAR-3 ovarian,7.69 µM
same,GI50,OVCAR-4 ovarian,8.82 µM
same,TGI,OVCAR-4 ovarian,> 100 µM
same,GI50,OVCAR-5 ovarian,3.64 µM
same,TGI,OVCAR-5 ovarian,25.8 µM
same,GI50,OVCAR-8 ovarian,3.24 µM
same,TGI,OVCAR-8 ovarian,16.9 µM
same,GI50,PC-3 prostate,3.75 µM
same,TGI,PC-3 prostate,> 100 µM
same,GI50,RPMI-8226 leukemia,3.84 µM
same,TGI,RPMI-8226 leukemia,> 100 µM
same,GI50,RXF 393 renal,5.03 µM
same,TGI,RXF 393 renal,93.5 µM
same,GI50,SF-268 CNS,3.72 µM
same,TGI,SF-268 CNS,84.3 µM
same,GI50,SF-295 CNS,3.07 µM
same,TGI,SF-295 CNS,87 µM
same,GI50,SF-539 CNS,2.51 µM
same,TGI,SF-539 CNS,6.8 µM
same,GI50,SK-MEL-2 melanoma,5.98 µM
same,TGI,SK-MEL-2 melanoma,> 100 µM
same,GI50,SK-MEL-28 melanoma,8.33 µM
same,TGI,SK-MEL-28 melanoma,> 100 µM
same,GI50,SK-MEL-5 melanoma,2.7 µM
same,TGI,SK-MEL-5 melanoma,10.4 µM
same,GI50,SK-OV-3 ovarian,5.45 µM
same,TGI,SK-OV-3 ovarian,> 100 µM
same,GI50,SN12C renal,3.74 µM
same,TGI,SN12C renal,30.9 µM
same,GI50,SNB-19 CNS,9.17 µM
same,TGI,SNB-19 CNS,> 100 µM
same,GI50,SNB-75 CNS,2.63 µM
same,TGI,SNB-75 CNS,9.12 µM
same,GI50,SR leukemia,2.56 µM
same,TGI,SR leukemia,17.7 µM
same,GI50,SW-620 colon,3.71 µM
same,TGI,SW-620 colon,> 100 µM
same,GI50,T-47D breast,5.6 µM
same,TGI,T-47D breast,> 100 µM
same,GI50,TK-10 renal,9.97 µM
same,TGI,TK-10 renal,> 100 µM
same,GI50,U251 CNS,4.92 µM
same,TGI,U251 CNS,72.2 µM
same,GI50,UACC-257 melanoma,25.5 µM
same,TGI,UACC-257 melanoma,> 100 µM
same,GI50,UACC-62 melanoma,3.35 µM
same,TGI,UACC-62 melanoma,> 100 µM
same,GI50,UO-31 renal,5.4 µM
same,TGI,UO-31 renal,> 100 µM
